Consider nine molecules from patent US11970470B1, “{5-chloro-2-(2-(3-(substitutedphenyl)-1,2,4-oxadiazol-5-yl)ethyl)phenyl}(phenyl)methanones as larvicidal agents” (KING FAISAL UNIVERSITY, priority 2023, dated 2024).

The test system of one series is Anopheles arabiensis. Briefly: Larvicidal screening (WHO protocol), 3rd instar larvae. It is filed as in vivo. The conditions noted are these: for mortality at 4 µg/mL: 4 μg/mL. As to the method: Anopheles arabiensis was used in the study according to the protocol described by WHO (1975) guidelines in an insectary simulating the temperature (27.5° C.), humidity (70%), and lighting (12/12) of a malaria-endemic environment. One mL of test compound (1 mg/mL) was added to 1 mL of acetone and followed by […] of distilled water to obtain a final concentration of 4 μg/mL. Thirty individuals of 3rd instar larvae were introduced into a container. Negative control was set up using the solvent (acetone) and distilled water, and a positive control included Temephos, which is an active emulsified organophosphate larvicidal used by malaria control programs. Larval mortality was examined for each container separately for 24 h and fed specially made cat food that contained less oil/fat content. The percentage of mortality was determined relative to the initial number of larvae exposed.
Differences in larval mortality between treatments were assessed with generalized linear models using a quasi-Poisson link function. Anopheles arabiensis mortality was the dependent variable, while fixed effects were test compounds and observation period (24 and 48 h). A p-value<0.05 was considered statistically significant. Throughout the text, the results are presented as the adjusted mean±the standard error.

[1] abbreviates: Anopheles arabiensis larvae exposed for 24 h, read-out: Mortality in % (Mean ± SEM) 24 h.
The mark [2] stands for this setting: Anopheles arabiensis larvae exposed for 48 h, read-out: Mortality in % (Mean ± SEM) 48 h.

Structures are written as SMILES. Read-outs that look alike come from different tables or passages of the source.

As a reminder, the mortality is the share of the test organisms that died. Broadly, the melting point is the temperature of the solid-liquid transition.

For `COc1cc(-c2noc(COc3ccc(Cl)cc3C(=O)c3ccccc3)n2)ccc1F` [Compound 5i, {5-Chloro-2-[(3-(4-fluoro-3-methoxyphenyl)-1,2,4-oxadiazol-5-yl)-methoxy]-phenyl}-(phenyl)-methanone], the mortality at 4 µg/mL in the series with Anopheles arabiensis (setting [1]) is 79.5 ± 1.09%; in the series on Anopheles arabiensis (setting [2]) it was 84.7 ± 1.88%.

Take `O=C(c1ccccc1)c1cc(Cl)ccc1OCc1nc(-c2ccc(F)cc2)no1` [Compound 5b, {5-Chloro-2-[(3-(4-fluorophenyl)-1,2,4-oxadiazol-5-yl)-methoxy]-phenyl}-(phenyl)-methanone]: the mortality at 4 µg/mL with Anopheles arabiensis (setting [1]) worked out at 91.7 ± 1.61%; in the series on Anopheles arabiensis (setting [2]), 94.7 ± 1.9%. `CCOc1ccc(-c2noc(COc3ccc(Cl)cc3C(=O)c3ccccc3)n2)cc1` [Compound 5e, {5-Chloro-2-[(3-(4-ethoxyphenyl)-1,2,4-oxadiazol-5-yl)-methoxy]-phenyl}-(phenyl)-methanone]: the melting point was in the range of 80 to 82 °C. As for `Cc1cc(-c2noc(COc3ccc(Cl)cc3C(=O)c3ccccc3)n2)ccc1F` [Compound 5h, {5-Chloro-2-[(3-(4-fluoro-3-methylphenyl)-1,2,4-oxadiazol-5-yl)-methoxy]-phenyl}-(phenyl)-methanone], the mortality at 4 µg/mL in the series on Anopheles arabiensis (setting [1]) was 83.6 ± 2.01%; with Anopheles arabiensis (setting [2]), 86.1 ± 1.95%. Take `O=C(c1ccccc1)c1cc(Cl)ccc1OCc1nc(-c2ccc(F)c(Cl)c2)no1` [Compound 5f, {5-Chloro-2-[(3-(3-chloro-4-fluorophenyl)-1,2,4-oxadiazol-5-yl)-methoxy]-phenyl}-(phenyl)-methanone]: the mortality at 4 µg/mL in the series on Anopheles arabiensis (setting [1]) was 98.2 ± 1.22%; in the series with Anopheles arabiensis (setting [2]) it was 100 ± 2.01%. Also, the “larval mortality rate in 48 hours” value with Anopheles arabiensis (in 48 hours, unit not given) is on record as 100.00±2.01.

Turning to `Cc1cc(F)c(-c2noc(COc3ccc(Cl)cc3C(=O)c3ccccc3)n2)cc1F` [Compound 5d, {5-Chloro-2-[(3-(2,5-difluoro-4-methylphenyl)-1,2,4-oxadiazol-5-yl)-methoxy]-phenyl}-(phenyl)-methanone], the melting point was 87 to 89 °C.

For `CC(C)c1ccc(-c2noc(COc3ccc(Cl)cc3C(=O)c3ccccc3)n2)cc1` [Compound 5g, {5-Chloro-2-[(3-(4-isopropylphenyl)-1,2,4-oxadiazol-5-yl)-methoxy]-phenyl}-(phenyl)-methanone], the melting point was 110 to 112 °C.

In turn, `O=C(c1ccccc1)c1cc(Cl)ccc1OCc1nc(-c2ccccc2)no1` [Compound 5a, {5-Chloro-2-[(3-(phenyl)-1,2,4-oxadiazol-5-yl)-methoxy]-phenyl}-(phenyl)-methanone] displayed a melting point of 108 to 110 °C. Same read-out and setting: with `O=C(c1ccccc1)c1cc(Cl)ccc1OCc1nc(-c2ccc(I)cc2)no1` [Compound 5c, {5-chloro-2-[(3-(4-iodophenyl)-1,2,4-oxadiazol-5-yl)-methoxy]-phenyl}-(phenyl)-methanone] the figure was 124 to 126 °C.
